Results published in US12454531B2, “Substituted piperazine derivatives useful as T cell activators” (BRISTOL-MYERS SQUIBB COMPANY, priority 2019, dated 2025).
Like-named read-outs stand apart in the source and are kept apart here.

Columns and labels:
[1] = target: DGKζ (Homo sapiens (Human), UniProt Q13574); assay: Assay 1 or 2: In Vitro DGK Inhibition Assays (DGKζ LIPGLO, extruded liposome); format: biochemical; settings: extruded liposome substrate, 150 μM ATP
Protocol: (§1) Assay 1: In Vitro DGK Inhibition Assays—Method A
(§2) The DGKα and DGKζ reactions were performed using either extruded liposome (DGKα and DGKζ LIPGLO assays) or detergent/lipid micelle substrate (DGKα and DGKζ assays). The reactions were carried out in 50 mM MOPS pH 7.5, 100 mM NaCl, 10 mM MgCl2, 1 μM CaCl2), and 1 mM DTT (assay buffer). The reactions using a detergent/lipid micelle substrate also contained 50 mM octyl B-D-glucopyranoside. The lipid substrate concentrations were 11 mM PS and 1 mM DAG for the detergent/lipid micelle reactions. The lipid substrate concentrations were 2 mM PS, 0.25 mM DAG, and 2.75 mM PC for the extruded liposome reactions. The reactions were carried out in 150 μM ATP. The enzyme concentrations for the DGKα and DGKζ were 5 nM
(§3) The compound inhibition studies were carried out as follows: 50 nL droplets of each test compound (top concentration 10 mM with 11 point, 3-fold dilution series for each compound) solubilized in DMSO were transferred to wells of a white 1536 well plate (Corning 3725). A 5 mL enzyme/substrate solution at 2× final reaction concentration was prepared by combining 2.5 mL 4× enzyme solution (20 nM DGKα or DGKζ (prepared as described below) in assay buffer) and 2.5 mL of either 4× liposome or 4× detergent/lipid micelle solution (compositions described below) and incubated at room temperature for 10 minutes. Next, 1 μL 2× enzyme/substrate solution was added to wells containing the test compound and reactions were initiated with the addition of 1 μL 300 uM ATP. The reactions were allowed to proceed for 1 hr, after which 2 μL Glo Reagent (Promega V9101) was added and incubated for 40 minutes. Next, 4 μL Kinase Detection Reagent was added and incubated for 30 minutes. Luminescence was recorded using an EnVision microplate reader. […] The compounds were evaluated at 11 concentrations to determine IC50.
(§4) The lipid composition was 5 mol % DAG (Avanti 8008110), 40 mol % PS (Avanti 840035P), and 55 mol % PC (Avanti 850457) at a total lipid concentration of 15.2 mg/mL for the 4× liposome solution. The PC, DAG, and PS were dissolved in chloroform, combined, and dried in vacuo to a thin film. The lipids were hydrated to 20 mM in 50 mM MOPS pH 7.5, 100 mM NaCl, 5 mM MgCl2, and were freeze-thawed five times. The lipid suspension was extruded through a 100 nm polycarbonate filter eleven times. […] The liposome preparation was stored at 4° C. for as long as four weeks.
(§5) Baculovirus amplification was achieved using infected Sf9 cells at 1:1500 virus/cell ratios, and grown for 65 hours at 27° C. post-transfection.
(§6) The cells were lysed using nitrogen cavitation method with a nitrogen bomb (Parr Instruments), and the lysates were clarified by centrifugation. […] The three steps column chromatography included nickel affinity resin capture (i.e. HisTrap FF crude, GE Healthcare), followed by size exclusion chromatography (i.e. HiLoad 26/600 Superdex 200 prep grade, GE Healthcare for DGK-alpha, and HiPrep 26/600 Sephacryl S 300_HR, GE Healthcare for DGK-zeta). The third step was ion exchange chromatography, and differed for the two isoforms. DGKα was polished using Q-Sepharose anion exchange chromatography (GE Healthcare). DGKζ was polished using SP Sepharose cation exchange chromatography (GE Healthcare). The proteins were delivered at concentrations of ≥2 mg/mL. The formulation buffers were identical for both proteins: 50 mM Hepes, pH 7.2, 500 mM NaCl, 10% v/v glycerol, 1 mM TCEP, and 0.5 mM EDTA.
Assay 2: In Vitro DGK Inhibition Assays—Method B
The DGKα and DGKζ reactions were performed using either extruded liposome (DGKα and DGKζ LIPGLO assays) or detergent/lipid micelle substrate (DGKα and DGKζ assays).

[2] = target: DGKα (Homo sapiens (Human), UniProt P23743); assay: Assay 1: In Vitro DGK Inhibition Assays, Method A (DGKα LIPGLO, extruded liposome); format: biochemical; settings: extruded liposome substrate, 150 μM ATP
Sequence of DGKα (P23743 whole entry): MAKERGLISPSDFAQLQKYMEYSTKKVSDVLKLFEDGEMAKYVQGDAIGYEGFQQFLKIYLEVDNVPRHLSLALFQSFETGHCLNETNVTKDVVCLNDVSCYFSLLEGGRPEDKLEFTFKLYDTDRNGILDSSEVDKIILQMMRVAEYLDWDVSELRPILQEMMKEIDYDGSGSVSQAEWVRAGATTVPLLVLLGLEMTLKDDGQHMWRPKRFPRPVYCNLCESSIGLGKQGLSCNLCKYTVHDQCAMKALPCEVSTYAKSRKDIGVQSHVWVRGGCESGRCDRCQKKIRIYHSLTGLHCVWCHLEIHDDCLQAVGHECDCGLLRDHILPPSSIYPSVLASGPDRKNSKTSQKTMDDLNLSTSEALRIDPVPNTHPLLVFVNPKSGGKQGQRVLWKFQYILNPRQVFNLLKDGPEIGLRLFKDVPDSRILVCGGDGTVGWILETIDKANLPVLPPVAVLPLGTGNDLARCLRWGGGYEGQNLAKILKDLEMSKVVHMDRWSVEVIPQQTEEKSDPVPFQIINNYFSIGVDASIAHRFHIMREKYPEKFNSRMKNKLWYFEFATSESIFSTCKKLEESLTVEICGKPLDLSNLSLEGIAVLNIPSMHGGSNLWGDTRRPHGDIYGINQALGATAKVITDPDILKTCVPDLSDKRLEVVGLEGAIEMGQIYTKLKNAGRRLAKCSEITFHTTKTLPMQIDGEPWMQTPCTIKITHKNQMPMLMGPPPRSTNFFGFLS
Protocol: as §1, §2, §3, §4, §5, §6

[3] = system: Human whole blood IFN-γ; assay: Assay 10: Human Whole Blood IFN-γ Assay; format: cell-based; settings: anti-CD3 and anti-CD28 stimulation, 100% = 3 μM reference compound, read-out: INFg Whole Blood Normalized Agonist EC50
Protocol: Assay 10: Human Whole Blood IFN-γ Assay
Human venous whole blood (22.5 μL per well), obtained from healthy donors, was pre-treated with compounds for one hour at 37° C. in a humidified 95% air/5% CO2 incubator. The blood was stimulated with 2.5 μL anti-human CD3 and anti-CD28 mAb at a final concentration of 1 μg/mL each for 24 hours at 37° C. IFN-7 in the supernatants was measured using AlphLISA kit (Cat #AL217).

Sequence of DGKζ (Q13574 other isoform, or with tags, fused parts or gaps): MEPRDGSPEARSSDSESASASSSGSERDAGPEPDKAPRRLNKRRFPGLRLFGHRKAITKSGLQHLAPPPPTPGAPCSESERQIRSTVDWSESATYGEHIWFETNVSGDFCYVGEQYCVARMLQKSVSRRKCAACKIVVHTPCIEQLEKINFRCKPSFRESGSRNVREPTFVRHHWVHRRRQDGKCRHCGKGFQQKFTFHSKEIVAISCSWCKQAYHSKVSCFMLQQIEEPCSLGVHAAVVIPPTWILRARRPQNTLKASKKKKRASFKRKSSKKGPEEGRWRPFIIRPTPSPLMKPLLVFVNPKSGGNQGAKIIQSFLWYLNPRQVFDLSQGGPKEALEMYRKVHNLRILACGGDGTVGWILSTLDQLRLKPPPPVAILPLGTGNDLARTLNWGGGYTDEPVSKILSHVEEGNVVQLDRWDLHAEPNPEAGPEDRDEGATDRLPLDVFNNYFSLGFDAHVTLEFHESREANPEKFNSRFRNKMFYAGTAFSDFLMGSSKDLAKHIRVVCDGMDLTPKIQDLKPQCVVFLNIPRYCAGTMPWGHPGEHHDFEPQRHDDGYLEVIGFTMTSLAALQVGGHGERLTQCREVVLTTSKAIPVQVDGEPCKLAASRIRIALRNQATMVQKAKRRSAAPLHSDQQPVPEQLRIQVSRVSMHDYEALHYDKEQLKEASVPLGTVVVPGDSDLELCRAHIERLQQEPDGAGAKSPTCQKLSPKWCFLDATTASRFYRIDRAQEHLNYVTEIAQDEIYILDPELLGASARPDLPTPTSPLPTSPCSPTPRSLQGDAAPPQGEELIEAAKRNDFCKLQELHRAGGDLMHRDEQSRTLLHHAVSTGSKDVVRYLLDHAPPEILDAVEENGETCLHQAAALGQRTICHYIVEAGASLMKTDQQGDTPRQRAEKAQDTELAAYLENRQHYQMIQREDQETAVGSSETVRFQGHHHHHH

Q: `C[C@@H]1CN(c2cc(=O)n(C)c3ccc(C#N)nc23)[C@@H](C)CN1C(C(=O)NCC(F)F)c1ccc(F)cc1` (stereo partly drawn) [Example 5, 2-((2R,5S)-4-(6-cyano-1-methyl-2-oxo-1,2-dihydro-1,5-naphthyridin-4-yl)-2,5-dimethylpiperazin-1-yl)-N-(2,2-difluoroethyl)-2-(4-fluorophenyl)acetamide] was tested. Which IC50 [1] did it give?
A: Its IC50 is 3.27 µM.

Q: And the IC50 [2]?
A: The IC50 was 2.04 µM.

Q: With `C[C@@H]1CN(c2cc(=O)n(C)c3ccc(C#N)nc23)[C@@H](C)CN1C(C(=O)N1CCCCC1)c1ccc(F)cc1` (stereo partly drawn) [Example 12] as the molecule, how does the IC50 [1] read?
A: Its IC50 is 6.68 µM.

Q: And the IC50 [2]?
A: The IC50 was 5.12 µM.

Q: `C[C@@H]1CN(c2cc(=O)n(C)c3ccc(C#N)nc23)[C@@H](C)CN1C(C(=O)N1CCOCC1)c1ccc(F)cc1` (stereo partly drawn) [Example 17, 8-((2S,5R)-4-(1-(4-fluorophenyl)-2-morpholino-2-oxoethyl)-2,5-dimethylpiperazin-1-yl)-5-methyl-6-oxo-5,6-dihydro-1,5-naphthyridine-2-carbonitrile] was tested. Which IC50 [1] did it give?
A: Its IC50 is 7.75 µM.

Q: And the IC50 [2]?
A: Its IC50 is 2.56 µM.

Q: And the EC50 ([3]; 24 hours)?
A: The EC50 was 1.49 µM.

Q: With `C[C@@H]1CN(c2cc(=O)n(C)c3ccc(C#N)nc23)[C@@H](C)CN1C(C(=O)N1CCOCC1)c1ccc(F)cc1` (stereo partly drawn) [Example 18, 8-((2S,5R)-4-(1-(4-fluorophenyl)-2-morpholino-2-oxoethyl)-2,5-dimethylpiperazin-1-yl)-5-methyl-6-oxo-5,6-dihydro-1,5-naphthyridine-2-carbonitrile] as the molecule, how does the IC50 [1] read?
A: Its IC50 is 42.9 µM.

Q: And the IC50 [2]?
A: Its IC50 is 24.8 µM.

Q: And the EC50 ([3]; 24 hours)?
A: The EC50 was 20 µM.

Q: For `C[C@@H]1CN(c2cc(=O)n(C)c3ccc(C#N)nc23)[C@@H](C)CN1C(C(=O)N1CCN(C)CC1)c1ccc(F)cc1` (stereo partly drawn) [Example 19, 8-((2S,5R)-4-(1-(4-fluorophenyl)-2-(4-methylpiperazin-1-yl)-2-oxoethyl)-2,5-dimethylpiperazin-1-yl)-5-methyl-6-oxo-5,6-dihydro-1,5-naphthyridine-2-carbonitrile], which IC50 [1] is on record?
A: The IC50 was 172 µM.

Q: And the IC50 [2]?
A: Its IC50 is 37.1 µM.

Q: What about the EC50 ([3]; Homo sapiens, 24 h) of the same molecule?
A: Its EC50 is 3.44 µM.

Q: With `C[C@@H]1CN(c2cc(=O)n(C)c3ccc(C#N)nc23)[C@@H](C)CN1C(C(=O)N1CCN(C)CC1)c1ccc(F)cc1` (stereo partly drawn) [Example 20, 8-((2S,5R)-4-(1-(4-fluorophenyl)-2-(4-methylpiperazin-1-yl)-2-oxoethyl)-2,5-dimethylpiperazin-1-yl)-5-methyl-6-oxo-5,6-dihydro-1,5-naphthyridine-2-carbonitrile] as the molecule, how does the IC50 [1] read?
A: Its IC50 is 83.3 µM.

Q: What about the IC50 [2] of the same molecule?
A: The IC50 was 253 µM.

Q: With `C[C@@H]1CN(c2cc(=O)n(C)c3ccc(C#N)nc23)[C@@H](C)CN1C(C(=O)Nc1ccon1)c1ccc(F)cc1` (stereo partly drawn) [Example 29, 2-((2R,5S)-4-(6-cyano-1-methyl-2-oxo-1,2-dihydro-1,5-naphthyridin-4-yl)-2,5-dimethylpiperazin-1-yl)-2-(4-fluorophenyl)-N-(isoxazol-3-yl)acetamide] as the molecule, how does the IC50 [1] read?
A: The IC50 was 2.44 µM.

Q: What about the IC50 [2] of the same molecule?
A: Its IC50 is 5.57 µM.

Q: What about the EC50 ([3]; Homo sapiens, 24 h) of the same molecule?
A: The EC50 was 3.75 µM.

Q: Which results are given for `C[C@@H]1CN(c2cc(=O)n(C)c3ccc(C#N)nc23)[C@@H](C)CN1C(C(=O)Nc1ccon1)c1ccc(F)cc1` (stereo partly drawn) [Example 30, 2-((2R,5S)-4-(6-cyano-1-methyl-2-oxo-1,2-dihydro-1,5-naphthyridin-4-yl)-2,5-dimethylpiperazin-1-yl)-2-(4-fluorophenyl)-N-(isoxazol-3-yl)acetamide]?
A: IC50 [1]: 0.14 µM; IC50 [2]: 0.02 µM

Q: Which IC50 [1] does the source give for `CC(C)N(C)C(=O)CC(c1ccc(F)cc1)N1C[C@H](C)N(c2cc(=O)n(C)c3ccc(C#N)nc23)C[C@H]1C` (stereo partly drawn) [Example 42, 3-[(2R,5S)-4-(6-cyano-1-methyl-2-oxo-1,2-dihydro-1,5-naphthyridin-4-yl)-2,5-dimethylpiperazin-1-yl]-3-(4-fluorophenyl)-N-methyl-N-(propan-2-yl)propanamide] here?
A: The IC50 was 4.12 µM.

Q: And the IC50 [2]?
A: The IC50 was 0.83 µM.

Q: What about the EC50 ([3]; 24 hours) of the same molecule?
A: Its EC50 is 1.37 µM.

Q: With `C#CCCC1(CCCOC(=O)C(c2ccc(F)cc2)N2C[C@H](C)N(c3cc(=O)n(C)c4ccc(C#N)nc34)C[C@H]2C)N=N1` (stereo partly drawn) [Example 57, 3-(3-(but-3-yn-1-yl)-3H-diazirin-3-yl)propyl 2-((2R,5S)-4-(6-cyano-1-methyl-2-oxo-1,2-dihydro-1,5-naphthyridin-4-yl)-2,5-dimethylpiperazin-1-yl)-2-(4-fluorophenyl)acetate] as the molecule, how does the IC50 [1] read?
A: Its IC50 is 0.19 µM.

Q: What about the IC50 [2] of the same molecule?
A: The IC50 was 0.07 µM.

Q: What about the EC50 ([3]; Homo sapiens, 24 h) of the same molecule?
A: The EC50 was 0.12 µM.

Q: What does the source list for `C[C@@H]1CN(c2cc(=O)n(C)c3ccc(C#N)nc23)[C@@H](C)CN1C(C(=O)OCCC1(C)N=N1)c1ccc(F)cc1` (stereo partly drawn) [Example 62, 2-(3-methyl-3H-diazirin-3-yl)ethyl 2-((2R,5S)-4-(6-cyano-1-methyl-2-oxo-1,2-dihydro-1,5-naphthyridin-4-yl)-2,5-dimethylpiperazin-1-yl)-2-(4-fluorophenyl)acetate]?
A: IC50 [1]: 0.19 µM; IC50 [2]: 0.08 µM; EC50 ([3]; Homo sapiens, 24 h): 0.57 µM

Q: How did the IC50 [1] turn out when `C[C@@H]1CN(c2cc(=O)n(C)c3ccc(C#N)nc23)[C@@H](C)CN1C(C(=O)NCCOCCOCCNC(=O)c1ccc2c(c1)C(=O)OC21c2ccc(O)cc2Oc2cc(O)ccc21)c1ccc(F)cc1` (stereo partly drawn) [Example 65, N-(2-(2-(2-(2-((2R,5S)-4-(6-cyano-1-methyl-2-oxo-1,2-dihydro-1,5-naphthyridin-4-yl)-2,5-dimethylpiperazin-1-yl)-2-(4-fluorophenyl)acetamido)ethoxy)ethoxy)ethyl)-3′,6′-dihydroxy-3-oxo-3H-spiro[isobenzofuran-1,9′-xanthene]-5-carboxamide] was run?
A: Its IC50 is 56.6 µM.

Q: What about the IC50 [2] of the same molecule?
A: Its IC50 is 96.5 µM.

Q: Which results are given for `C[C@@H]1CN(c2cc(=O)n(C)c3ccc(C#N)nc23)[C@@H](C)CN1C(C(=O)OCCOCCOCCNC(=O)c1ccc2c(c1)C(=O)OC21c2ccc(O)cc2Oc2cc(O)ccc21)c1ccc(F)cc1` (stereo partly drawn) [Example 68, 2-(2-(2-(3′,6′-dihydroxy-3-oxo-3H-spiro[isobenzofuran-1,9′-xanthene]-5-carboxamido)ethoxy)ethoxy)ethyl 2-((2R,5S)-4-(6-cyano-1-methyl-2-oxo-1,2-dihydro-1,5-naphthyridin-4-yl)-2,5-dimethylpiperazin-1-yl)-2-(4-fluorophenyl)acetate]?
A: IC50 [1]: 0.41 µM; IC50 [2]: 0.16 µM
